{"source": "patent US9550763B2", "about": "“Heterocyclic ring and carbocyclic derivative” (Shionogi & Co., Ltd., priority 2012, dated 2017)"}
{"target": "human P2X3 receptor (Homo sapiens (Human), UniProt P56373)", "sequence (P56373 whole entry)": "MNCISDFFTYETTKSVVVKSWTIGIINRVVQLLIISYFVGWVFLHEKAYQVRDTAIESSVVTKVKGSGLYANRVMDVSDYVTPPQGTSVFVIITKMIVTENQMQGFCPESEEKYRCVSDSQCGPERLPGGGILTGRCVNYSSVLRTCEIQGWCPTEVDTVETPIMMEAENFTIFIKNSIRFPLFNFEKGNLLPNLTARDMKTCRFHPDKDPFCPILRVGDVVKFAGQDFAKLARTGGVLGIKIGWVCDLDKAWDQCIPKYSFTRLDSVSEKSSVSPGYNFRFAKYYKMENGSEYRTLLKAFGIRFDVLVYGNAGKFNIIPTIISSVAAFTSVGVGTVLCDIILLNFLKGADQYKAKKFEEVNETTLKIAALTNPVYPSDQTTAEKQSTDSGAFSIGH", "assay": "Evaluation of human P2X3 receptor inhibitory activity (Test Example 1-1, FDSS 3000, 96-well, 50 nM ATP)", "type": "cell-based", "conditions": "human P2X3 receptor in C6BU-1 cells; Test Example 1-1 (compounds I-001 to I-300)", "method_in_brief": "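C6BU-1 cells stably expressing human P2X3, loaded with 4 μM Fluo-3-AM (pH 7.5), preincubated 5 min with compound before 50 nM ATP challenge; fluorescence followed 4 min on FDSS 3000. IC50 derived from peak/baseline fluorescence ratio, no-compound as 0% and buffer-instead-of-ATP as 100% inhibition.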", "units": {"IC50": "nM"}}
{"smiles": "CCc1oc2ccc(/N=c3\\[nH]cc(NC(=O)C4CCOCC4)c(=O)n3Cc3ccc(Cl)cc3)cc2c1C", "note": "[Compound I-030, 1-(4-chlorobenzyl)-2-(2-ethyl-3-methylbenzofuran-5-ylamino)-5-(tetrahydro-2H-pyran-4-ylcarbonylamino)pyrimidin-6(1H)-one]", "IC50": 5}
{"smiles": "CCn1c(=O)cc(Nc2ccc(Oc3cccc(C#N)n3)c(C)c2)n(Cc2ccc(Cl)cc2)c1=O", "note": "[Compound I-012]", "IC50": 2}
{"smiles": "CC(C)(C)OC(=O)N1CCC(C(=O)Nc2c[nH]/c(=N\\c3ccc(Oc4ccon4)cc3)n(Cc3ccc(Cl)cc3)c2=O)CC1", "note": "[Compound I-182]", "IC50": 52}
{"smiles": "O=C(Nc1cnc(Nc2ccc(Oc3cccc(F)n3)cc2)n(Cc2ccc(Cl)cc2)c1=O)C1CCOCC1", "note": "[Compound I-134]", "IC50": 2}
{"smiles": "CCCn1c(=O)cc(Nc2ccc(Oc3cccc(C(=O)O)n3)cn2)n(Cc2ccc(Cl)cc2)c1=O", "note": "[Compound I-172]", "IC50": 16}
{"smiles": "O=C(NC1CCOCC1)c1cn(Cc2ccc(Cl)cc2)c(Nc2ccc(Oc3cccc(F)n3)cc2)nc1=O", "note": "[Compound I-156]", "IC50": 6}
{"smiles": "NC(=O)c1ccc(Oc2ccc(Nc3nc(=O)c(C(=O)NC4CCOCC4)cn3Cc3ccc(Cl)cc3)cc2)cn1", "note": "[Compound I-200]", "IC50": 10}
{"smiles": "O=c1c(-c2cccnc2)c[nH]/c(=N\\c2ccc(Oc3ccon3)cc2)n1Cc1ccc(Cl)cc1", "note": "[Compound I-273]", "IC50": 201}
{"smiles": "O=C(NC1CCOCC1)c1cn(Cc2ccccn2)c(Nc2ccc(Oc3cccc(F)n3)cc2)nc1=O", "note": "[Compound I-295]", "IC50": 618}
{"smiles": "CN(C)C(=O)c1c[nH]/c(=N\\c2ccc(Oc3cccc(F)n3)cc2)n(Cc2ccc(Cl)cc2)c1=O", "note": "[Compound I-195]", "IC50": 70}
{"smiles": "O=c1c(NC(=O)[C@H]2C[C@H](O)C2)c[nH]/c(=N\\c2ccc(Oc3ccon3)cc2)n1Cc1ccc(Cl)cc1", "note": "[Compound I-183]", "IC50": 6}
{"smiles": "CCCn1c(=O)cc(Nc2ccc(Oc3cnc(C(=O)O)nc3)cn2)n(Cc2ccc(Cl)cc2)c1=O", "note": "[Compound I-201]", "IC50": 96}
{"smiles": "Cc1cnc(-c2c[nH]/c(=N\\c3ccc(Oc4cccc(C(N)=O)n4)cc3)n(Cc3ccc(Cl)cc3)c2=O)o1", "note": "[Compound I-288]", "IC50": 15}
{"smiles": "CCOC(=O)Cc1c[nH]/c(=N\\c2ccc3oc(CC)c(C)c3c2)n(Cc2ccc(Cl)cc2)c1=O", "note": "[Compound I-072]", "IC50": 228}
{"smiles": "NC(=O)c1ccc(Oc2ccc(Nc3nc(=O)c(C(=O)NC4CCOCC4)cn3Cc3ccc(Cl)cc3)cc2)nc1", "note": "[Compound I-239]", "IC50": 5}
{"smiles": "O=C(O)c1c[nH]/c(=N\\c2ccc(Oc3ncccc3F)cc2)n(Cc2ccc(Cl)cc2)c1=O", "note": "[Compound I-108]", "IC50": 440}
{"smiles": "CCC(=O)Nc1c[nH]/c(=N\\c2ccc(Oc3ccnc(C(=O)OC)c3)cc2)n(Cc2ccc(Cl)cn2)c1=O", "note": "[Compound I-287]", "IC50": 356}
{"smiles": "O=C(NC1CCOCC1)c1cn(Cc2ccc(Cl)cc2)c(Nc2ccc(Oc3ccon3)cc2)nc1=O", "note": "[Compound I-175]", "IC50": 37}
{"smiles": "CCn1c(=O)cc(Nc2ccc(Oc3cccc(C(=O)O)c3)cn2)n(Cc2ccc(Cl)cc2)c1=O", "note": "[Compound I-053]", "IC50": 20}
{"smiles": "CN(C)C(=O)CNC(=O)c1cn(Cc2ccc(Cl)cc2)c(Nc2ccc(Oc3cccc(F)n3)cc2)nc1=O", "note": "[Compound I-299]", "IC50": 18}
{"smiles": "Cc1ccc(Cn2cc(C(=O)NC3CCOCC3)c(=O)nc2Nc2ccc(Oc3cccc(F)n3)cc2)cc1", "note": "[Compound I-282]", "IC50": 6}
{"smiles": "CCn1c(=O)cc(Nc2ccc(Oc3cccc(C(N)=O)c3)c(C)n2)n(Cc2ccc(Cl)cc2)c1=O", "note": "[Compound I-260]", "IC50": 36}
{"smiles": "CCn1c(=O)cc(Nc2ccc(Oc3cccc(C(=O)O)n3)c(F)c2)n(Cc2ccc(Cl)cc2)c1=O", "note": "[Compound I-033]", "IC50": 1}
{"smiles": "CCn1c(=O)cc(Nc2ccc(Oc3cccc(C#N)n3)cn2)n(Cc2ccc(Cl)cc2)c1=O", "note": "[Compound I-124]", "IC50": 19}
{"smiles": "O=C(Nc1c[nH]/c(=N\\c2ccc(Oc3ccon3)cc2)n(Cc2ccc(Cl)cc2)c1=O)c1cc[nH]n1", "note": "[Compound I-231]", "IC50": 388}
{"smiles": "O=C(NC1CCOCC1)c1cn(Cc2cccc(F)c2)c(Nc2ccc(Oc3cccc(F)n3)cc2)nc1=O", "note": "[Compound I-283]", "IC50": 226}
{"smiles": "O=C(O)c1cccc(Oc2ccc(Nc3cc(=O)[nH]c(=O)n3Cc3ccc(Cl)cc3)cc2)n1", "note": "[Compound I-067]", "IC50": 34}
{"smiles": "Cc1nc(Nc2cc(=O)n(C[C@H](C)C(=O)O)c(=O)n2Cc2ccc(Cl)cc2)ccc1Oc1cccc(F)c1", "note": "[Compound I-245]", "IC50": 58}
{"smiles": "CCc1cn(Cc2ccc(Cl)cc2)c(Nc2ccc(Oc3ncc(C(=O)O)s3)cc2)nc1=O", "note": "[Compound I-154]", "IC50": 317}
{"smiles": "O=C(Nc1c[nH]/c(=N\\c2ccc(Oc3ccon3)cc2)n(Cc2ccc(Cl)cc2)c1=O)C1CCOC1", "note": "(stereo not drawn) [Compound I-212]", "IC50": 11}
{"smiles": "O=C(NCCO)c1c[nH]/c(=N\\c2ccc(Oc3ccon3)cc2)n(Cc2ccc(Cl)cc2)c1=O", "note": "[Compound I-101]", "IC50": 71}
{"smiles": "Cc1oncc1C(=O)Nc1c[nH]/c(=N\\c2ccc(Oc3ccon3)cc2)n(Cc2ccc(Cl)cc2)c1=O", "note": "[Compound I-269]", "IC50": 16}
{"smiles": "O=c1c(-c2ccc(O)nc2)c[nH]/c(=N\\c2ccc(Oc3ccon3)cc2)n1Cc1ccc(Cl)cc1", "note": "[Compound I-205]", "IC50": 153}
{"smiles": "CCCn1c(=O)cc(Nc2ccc(Oc3cnc(C#N)nc3)cn2)n(Cc2ccc(Cl)cc2)c1=O", "note": "[Compound I-196]", "IC50": 37}
{"smiles": "O=C(Nc1cnc(Nc2ccc3nc(C(F)F)sc3c2)n(Cc2ccc(Cl)cc2)c1=O)C1CCOCC1", "note": "[Compound I-300]", "IC50": 15}
{"smiles": "CN(C)CCC(=O)Nc1c[nH]/c(=N\\c2ccc(Oc3ccon3)cc2)n(Cc2ccc(Cl)cc2)c1=O", "note": "[Compound I-185]", "IC50": 158}
{"smiles": "CCn1c(=O)cc(Nc2ccc(Oc3cccc(C(N)=O)c3)cc2)n(Cc2ccc(Cl)cc2)c1=O", "note": "[Compound I-024]", "IC50": 14}
{"smiles": "Cc1cnc(-c2c[nH]/c(=N\\c3ccc(Oc4cccc(C#N)n4)cc3)n(Cc3ccc(Cl)cc3)c2=O)o1", "note": "[Compound I-278, 1-(4-chlorobenzyl)-2-[4-(6-cyano-2-pyridyloxy)phenylamino]-5-(5-methyloxazol-2-yl)pyrimidin-6(1H)-one]", "IC50": 20}
{"smiles": "CCC(=O)Nc1c[nH]/c(=N\\c2ccc(Oc3ccc(C)nn3)cc2)n(Cc2ccc(Cl)cc2)c1=O", "note": "[Compound I-146]", "IC50": 26}
{"smiles": "CCn1c(=O)cc(Nc2cnc(Oc3cccc(C(=O)O)c3)cn2)n(Cc2ccc(Cl)cc2)c1=O", "note": "[Compound I-083]", "IC50": 168}
{"smiles": "Cc1cc(Nc2nc(=O)c(C(=O)NC3CCOCC3)cn2Cc2ccc(Cl)cc2)ccc1Oc1ncccc1F", "note": "[Compound I-160]", "IC50": 26}
{"smiles": "C/C(O)=C(/C#N)C(=O)Nc1c[nH]/c(=N\\c2ccc(Oc3ccon3)cc2)n(Cc2ccc(Cl)cc2)c1=O", "note": "[Compound I-242]", "IC50": 6}
{"smiles": "CCC(=O)Nc1c[nH]/c(=N\\c2ccc(Oc3ccnc(C(=O)O)c3)cc2)n(Cc2ccc(Cl)cc2)c1=O", "note": "[Compound I-105]", "IC50": 5}
{"smiles": "CCn1c(=O)cc(Nc2ccc(Oc3ccc(C(=O)O)nn3)cc2)n(Cc2ccc(Cl)cc2)c1=O", "note": "[Compound I-174]", "IC50": 36}
{"smiles": "CCn1c(=O)cc(Nc2ccc(Oc3cccc(C(N)=O)n3)c(C)c2)n(Cc2ccc(Cl)cc2)c1=O", "note": "[Compound I-027]", "IC50": 4}
{"smiles": "CCC(=O)Nc1c[nH]/c(=N\\c2ccc(Oc3cccc(C(N)=O)n3)cc2)n(Cc2ccc(Cl)cc2)c1=O", "note": "[Compound I-093]", "IC50": 9}
{"smiles": "CCc1oc2ccc(/N=c3\\[nH]cc(NS(=O)(=O)C4CCOCC4)c(=O)n3Cc3ccc(Cl)cc3)cc2c1C", "note": "[Compound I-047]", "IC50": 18}
{"smiles": "C[C@@H](Cn1c(=O)cc(Nc2ccc(Oc3ccon3)cc2)n(Cc2ccc(Cl)cc2)c1=O)C(=O)O", "note": "[Compound I-121]", "IC50": 26}
